Columns and labels:
[1] = target: T1, Geranylgeranyl transferase type I (Homo sapiens, UniProt P49354+P53609); assay: Inhibition of the human Geranylgeranyl transferase type I catalyzed incorporation of [3H]GGPP into a biotinylated peptide corresponding to the C-terminus of human K-Ras.; assay type: functional
[2] = target: Protein farnesyltransferase (Bos taurus, UniProt P29702+P49355); assay: Inhibition of Farnesyltransferase catalyzed incorporation of [3H]-FPP into recombinant Ras-CVIM.; assay type: functional
[3] = target: Protein farnesyltransferase; assay: Displacement of radiolabeled FTI from Farnesyltransferase in v-Ha-ras-transformed Rat1 cells.; assay type: cell-based
[4] = target: T1, Geranylgeranyl transferase type I; assay: Inhibition of geranylgeranylation of Rap1a in PSN-1 cells; assay type: functional, cell-based
[5] = target: Protein farnesyltransferase (Homo sapiens, UniProt P49354+P49356); assay: Inhibition of HDJ2 farnesylation in PSN-1 cells; assay type: functional, cell-based

Row | IC50 [1] [nM] | IC50 [2] [nM] | IC50 [3] [nM] | EC50 [4] [nM] | EC50 [5] [nM] | SMILES
1 | 1860 | 392 | – | – | – | COc1cc(C(F)(F)F)ccc1-c1ccc(Cn2cncc2CN2CCN(c3cccc(Cl)c3)C(=O)C2)cc1
2 | 1390 | 12 | 1600 | – | – | O=C1CN(Cc2cncn2Cc2ccc(-c3ccccc3)cc2)CCN1c1cccc(Cl)c1
3 | 509 | 14 | 159 | – | – | O=C1CN(Cc2cncn2Cc2ccc(-c3ccc(C(F)(F)F)cc3)nc2)CCN1c1cccc(Cl)c1
4 | 8450 | 17 | – | – | – | O=C1CN(Cc2cncn2Cc2ccc(-c3cccc(Cl)c3)cc2)CCN1c1cccc(Cl)c1
5 | 210 | 8.7 | 193 | – | – | O=C1CN(Cc2cncn2Cc2ccc(-c3ccc(Cl)cc3)cc2)CCN1c1cccc(Cl)c1
6 | 560 | 52 | – | – | – | O=C1CN(Cc2cncn2Cc2ccc(-c3ccc(OC(F)(F)F)cc3)nc2)CCN1c1cccc(Cl)c1
7 | 2300 | 19 | 250 | – | – | O=C1CN(Cc2cncn2Cc2ccc(-c3ccc(Cl)cc3)nc2)CCN1c1cccc(Cl)c1
8 | 15.6 | 2.1 | 1.1 | – | – | O=C1CN2CCc3cncn3Cc3ccc(-c4ccc(C(F)(F)F)cc4)c(c3)Oc3ccc4cccc(c4c3)N1CC2
9 | 161 | 1.2 | 2 | – | – | O=C1CN2CCc3cncn3Cc3ccc(Br)c(c3)Oc3ccc4cccc(c4c3)N1CC2
10 | 151 | 0.17 | 1.2 | 3400 | 28 | COc1cc(Cn2cncc2CCN2CCN(c3cccc(Cl)c3)C(=O)C2)ccc1-c1ccc(C(F)(F)F)cc1
11 | 1340 | 15 | 662 | – | – | O=C1CN(Cc2cncn2Cc2ccc(-c3ccc(F)cc3)cc2)CCN1c1cccc(Cl)c1
12 | 60 | 3.1 | 0.48 | 800 | 6.9 | O=C1CN2CCc3cncn3Cc3ccc(CCCCC(F)(F)F)c(c3)Oc3ccc4cccc(c4c3)N1CC2
13 | 140 | – | 29 | – | – | O=C1CN(Cc2cncn2Cc2ccc(-c3ccc(C(F)(F)F)cc3)cc2)CCN1c1cccc(Cl)c1
14 | 70 | 1.6 | 12 | – | – | COc1cc(Cn2cncc2CN2CCN(c3cccc(Cl)c3)C(=O)C2)ccc1-c1ccc(C(F)(F)F)cc1
15 | 509 | 8 | – | – | – | O=C1CN2CCc3cncn3Cc3cccc(c3)Oc3ccc4cccc(c4c3)N1CC2
16 | 1870 | 3500 | – | – | – | O=C1CN(Cc2cncn2Cc2ccc(-c3cc(C(F)(F)F)cc(C(F)(F)F)c3)cc2)CCN1c1cccc(Cl)c1
17 | 4.8 | 6.1 | 0.81 | – | – | O=C1CN2CCc3cncn3Cc3ccc(C#CCCC(F)(F)F)c(c3)Oc3ccc4cccc(c4c3)N1CC2
18 | 2680 | 410 | 662 | – | – | O=C1CN(Cc2cncn2Cc2ccc(-c3cccc(C(F)(F)F)c3)cc2)CCN1c1cccc(Cl)c1
19 | 3030 | 35 | 600 | – | – | O=C1CN(Cc2cncn2Cc2ccc(-c3cc(Cl)cc(Cl)c3)cc2)CCN1c1cccc(Cl)c1
20 | 2480 | 10.3 | – | – | – | CCCCc1ccc2cc1Oc1ccc3cccc(c3c1)N1CCN(CCc3cncn3C2)CC1=O
21 | – | 2 | – | – | – | N#Cc1ccc(Cn2cncc2CN2CCN(c3cccc(Cl)c3)C(=O)C2)cc1 [L-778123 FREE BASE]

Row | SMILES | IC50 [1] [nM] | IC50 [2] [nM] | IC50 [3] [nM] | EC50 [4] [nM] | EC50 [5] [nM]
22 | N#Cc1ccc2cc1Oc1ccc3cccc(c3c1)N1CCN(CCc3cncn3C2)CC1=O | 16 | 0.25 | 0.19 | – | –
